Measurements as given in US6833443B1, “Gymnemic acid derivatives, process for the preparation thereof and use thereof as medicine” (Guilin Jiqi Pharmaceutical Co., Ltd., priority 1999, dated 2004).

Assays:
[1] = system: rabbit's blood platelets; experiment: Effect of compound F on aggregation of rabbit's blood platelets in vitro; format: cell-based
Protocol: Effect of Compound F on Blood Platelet Aggregation in Rabbit
Take blood from rabbit heart by puncturing, add 3.8% of potassium citrate for anticoagulation (1:9), centrifuge for 15 minutes at 1000 rpm, take the upper layer as blood platelet rich plasma (prp), and then centrifuge for 10 minutes at […], and take supematant as blood platelet poor plasma (ppp). The final concentration of compound F is respectively 250, 500, 1000 μg/ml, and the final concentration is respectively 250, 500, 1000 ug/ml. Add 10 ul of physical brine of aspirin to the positive-control tube to a final concentration of 250 μg/ml, and add 10 μl of physical brine to the control tube […]. Observe the maximal aggregation ratio on PAM-1 type instrument of blood platelet aggregation within 3 minute.

[2] = system: blood platelet aggregation in rabbits; experiment: Effect of compound B on blood platelet aggregation in rabbits in vitro (ADP); format: cell-based, rabbit
Protocol: Blood was taken from rabbit heart by puncture, to which was added 3.8% potassium citrate for anticoagulation (1:9). Certification for 15 minute at 1000 rpm takes the upper layer as rich blood platelet plasma (prp), and then centrifugation for 10 minutes with 4000 rpm takes the supernatant as poor blood platelet plasma (ppp). […] 10 μl physiological brine of aspirin was added to a positive control tube, then it was put into a measuring cell after warming for 2 minutes at 37° C. 10 ul of physiological brine solution of ADP sodium salt was added with stirring. The final concentration is […]. The maximal aggregation ratio on PAM-1 type of blood platelet instrument was observed within 3 minutes.

[3] = system: Male Kun Ming strain mice; experiment: Effect of compound F on blood sugar elevation after oral dextrose; format: in vivo; details: dose 50 mg/kg oral, 7 days
Protocol: Effect of compound F on blood sugar elevation in rat.
Male Kun Ming strain mice are divided into randomly experimental groups, and they respectively took orally the compound F at […]. The positive control group took orally glybenclamide 50 mg/kg, and the blank control group and normal control group take orally the same distilled water. The volume of medicine given is 20 ml/kg, lasting 7 days. They are forbidden to give feedstuff 10 hours before the last time of administration. Each group is given 2.5 g/kg (10 ml/kg) dextrose solution except of normal control group. Before and after 30 minute of administration of dextrose, 100 ul of blood was sampled from the eyepit, and the content of dextrose in serum was measured by way of dextrose oxygenation enzyme.

[4] = system: Female SD rats; experiment: Effect on increasing blood sugar in rats caused by sucrose; format: in vivo, rat; details: for Value of blood sugar: dose 100 mg/kg
Protocol: Female SD rats fasted for 24 hours and were randomly divided into several groups. […] The normal group, control group and blank group were given the same amount of water. The given medicine volume was […], after 30 minutes each group was given saccharose 1/kg(5 ml/kg) except the normal group, and blood was extracted from the eyes of rats after 30, 60 and 120 minutes respectively, the content of glucose in the serum was measured.

[5] = system: normal mice; experiment: Effect of compound B on blood sugar in normal mice; format: in vivo; details: for Value of blood sugar: dose 100 mg/kg
Protocol: The positive control group orally took tolbutol at 100 mg/kg. The blank control group took orally same distilled water. The volume of medicine given is 20 ml/kg, lasting 14 days. The test drug was administered (provided that they are pre-forbidden to give food 5 hrs before administration) after the days 1, 3, 7, 14 of administration. 3 hrs after administration, blood (10 ul) was taken from the eyepit. The content of dextrose in serum was measured by reagent box.

CC(=O)Oc1ccccc1C(=O)O [Aspirin, aspirin]
inhibition at 250 µg/mL ([1]; Oryctolagus cuniculus, Platelet, final concentration 250 μg/ml, read-out: Inhibition rate (%)): 50.3%
Inhibition of aggregation of blood platelet (in words) ([1]; compound F 500, 1000 μg/ml, aspirin 250 μg/ml): obviously inhibit the aggregation of blood platelet
Maximal aggregation rate (%) ([1]; final concentration 250 μg/ml, within 3 minute): 23.7 ± 6.0 %
Inhibition of blood platelet aggregation (in words) ([2]; compound B 500, 1000 μg/ml, aspirin 250 μg/ml): obviously inhibit blood platelet from aggregating
Inhibition ratio ([2]; final concentration 250): 50.3
Maximal aggregation ratio (%) ([2]; final concentration 250 (μg/ml), ADP, within 3 minutes): 23.7 ± 6.0 %

COc1ccc(Cl)cc1C(=O)NCCc1ccc(S(=O)(=O)NC(=O)NC2CCCCC2)cc1 [glybenclamide]
Value of blood sugar ([3]; 0 minute (before dextrose)): 4.48 ± 0.83
Value of blood sugar ([3]; 30 minutes after dextrose): 8.18 ± 1.72

[H]/N=C(/N)N/C(=N/[H])NCCc1ccccc1 [phenformin]
Effect on the increased value of blood sugar (in words) ([4]; compound B 200 mg/kg, performing 100 mg/kg, within 30 minutes): reduce the increased value of blood sugar remarkably
Value of blood sugar ([4]; 30 minutes after sucrose): 4.24 ± 0.87 mmol/L
Value of blood sugar ([4]; 60 minutes after sucrose): 4.74 ± 0.90 mmol/L
Value of blood sugar ([4]; 120 minutes after sucrose): 4.79 ± 1.03 mmol/L

CCCCNC(=O)NS(=O)(=O)c1ccc(C)cc1 [tolbutol]
Effect on blood sugar of normal mice (in words) ([5]; Compound B 50, 100, 200 mg/kg for 14 days, tolbutol from day 3): obvious effect for lowering the blood sugar of normal mice
Value of blood sugar ([5]; day 1): 6.48 ± 1.18
Value of blood sugar ([5]; day 3): 5.22 ± 0.80
Value of blood sugar ([5]; day 7): 6.62 ± 0.96
Value of blood sugar ([5]; day 14): 5.75 ± 1.02
